Laboratory results published in patent US12171744B2, “Pharmaceutical combinations for the treatment of cancer” (Presage Biosciences, Inc., priority 2016, dated 2024).

Key:
[1] = tested on: SKM1 AML xenografts; experiment: Xenograft tumor growth; assay type: in vivo, NOD SCID; conditions: Voruciclib 200 mpk PO, ABT 199 10 mpk PO, 6 on/1 off; by day 22
Protocol: Mice were enrolled for study when tumors reached an average volume of 150-200 mm^3. Tumor volume was calculated as V=length×width×height, all three dimensions measured using digital calipers along with body weight. Animals were removed from the study when—any one of the three measured dimensions of the tumor exceeding 2 cm, volume exceeding 2500 mm^3, ulceration or body weight loss greater than 20%.

[2] = tested on: RIVA cells; experiment: CIVO microinjection, CC3 expression; set-up: species or system mice; conditions: mouse, in vivo
Protocol: (§1) Mice were enrolled into CIVO drug studies when the tumor volume reached approximately 1000 mm^3. Microinjection studies were performed using the CIVO device as previously described (Klinghoffer et al, Science Translational Medicine 2015) The device was configured with 6 injection needles set for a 6 mm injection length and a total volume delivery of 3 μl. A fluorescent tracking marker (FTM) was added to each drug reservoir in vehicle for delivery along with each drug or drug combination. All micro-doses were equivalent to or lower than what would be allowed under FDA guidelines for Exploratory IND (Investigational New Drug) studies and by solubility of drug into vehicle. Total amounts of agents injected are tabulated below in Table 4.

[3] = target: T1, CDK1 (Homo sapiens, UniProt P06493); experiment: Kinase inhibition profiling (filter binding assay with γ-33P-ATP); assay type: biochemical
T1 construct: purchased Reaction Biology Corp. (testing facility)
T1 sequence (P06493 whole entry): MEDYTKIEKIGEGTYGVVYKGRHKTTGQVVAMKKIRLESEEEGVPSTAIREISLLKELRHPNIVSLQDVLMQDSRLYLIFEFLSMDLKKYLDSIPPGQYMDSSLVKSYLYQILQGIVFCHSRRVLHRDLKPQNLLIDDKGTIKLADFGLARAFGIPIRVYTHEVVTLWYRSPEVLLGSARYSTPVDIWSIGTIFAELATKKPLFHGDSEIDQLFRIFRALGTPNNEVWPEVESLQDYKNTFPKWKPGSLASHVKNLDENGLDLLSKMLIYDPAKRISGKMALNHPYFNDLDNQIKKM
T1 sequence (P14635 whole entry partner): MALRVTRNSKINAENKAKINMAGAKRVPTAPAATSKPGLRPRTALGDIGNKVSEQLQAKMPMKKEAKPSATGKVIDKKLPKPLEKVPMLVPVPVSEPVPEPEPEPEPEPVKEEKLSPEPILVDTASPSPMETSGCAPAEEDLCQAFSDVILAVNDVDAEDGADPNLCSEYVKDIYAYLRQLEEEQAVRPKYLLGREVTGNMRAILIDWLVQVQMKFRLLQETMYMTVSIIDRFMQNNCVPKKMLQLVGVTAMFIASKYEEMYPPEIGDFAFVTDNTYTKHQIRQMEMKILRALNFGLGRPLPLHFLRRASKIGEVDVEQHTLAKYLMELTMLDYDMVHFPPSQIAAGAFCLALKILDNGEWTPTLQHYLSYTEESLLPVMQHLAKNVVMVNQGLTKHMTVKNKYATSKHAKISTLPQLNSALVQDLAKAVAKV
Protocol: (§2) For each kinase, an IC50 value were calculated from a 10-point concentration curve of the test article and converted to Ki values.

[4] = target: T2, CDK4 (Homo sapiens, UniProt P11802); experiment: as above; assay type: biochemical
T2 construct: purchased Reaction Biology Corp. (testing facility)
T2 sequence (P11802 whole entry): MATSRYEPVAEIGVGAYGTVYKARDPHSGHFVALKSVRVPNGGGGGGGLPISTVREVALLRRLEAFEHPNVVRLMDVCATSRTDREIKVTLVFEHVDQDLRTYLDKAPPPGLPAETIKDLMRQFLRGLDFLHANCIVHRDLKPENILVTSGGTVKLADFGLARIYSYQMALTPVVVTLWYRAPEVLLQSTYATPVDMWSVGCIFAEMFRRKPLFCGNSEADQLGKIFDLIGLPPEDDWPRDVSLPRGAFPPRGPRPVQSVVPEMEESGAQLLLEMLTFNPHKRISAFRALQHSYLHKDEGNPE
T2 sequence (P24385 whole entry partner): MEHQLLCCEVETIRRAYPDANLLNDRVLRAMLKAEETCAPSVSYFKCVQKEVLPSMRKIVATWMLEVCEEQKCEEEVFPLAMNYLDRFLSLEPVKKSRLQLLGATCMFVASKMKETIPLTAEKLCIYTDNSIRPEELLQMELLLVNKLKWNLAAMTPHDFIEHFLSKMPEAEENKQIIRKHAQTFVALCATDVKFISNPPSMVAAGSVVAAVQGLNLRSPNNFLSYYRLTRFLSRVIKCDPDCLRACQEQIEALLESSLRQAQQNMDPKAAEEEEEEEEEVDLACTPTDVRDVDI
Protocol: as §2

[5] = target: T3, CDK6 (Homo sapiens, UniProt Q00534); experiment: as above; assay type: biochemical
T3 construct: purchased Reaction Biology Corp. (testing facility)
T3 sequence (Q00534 whole entry): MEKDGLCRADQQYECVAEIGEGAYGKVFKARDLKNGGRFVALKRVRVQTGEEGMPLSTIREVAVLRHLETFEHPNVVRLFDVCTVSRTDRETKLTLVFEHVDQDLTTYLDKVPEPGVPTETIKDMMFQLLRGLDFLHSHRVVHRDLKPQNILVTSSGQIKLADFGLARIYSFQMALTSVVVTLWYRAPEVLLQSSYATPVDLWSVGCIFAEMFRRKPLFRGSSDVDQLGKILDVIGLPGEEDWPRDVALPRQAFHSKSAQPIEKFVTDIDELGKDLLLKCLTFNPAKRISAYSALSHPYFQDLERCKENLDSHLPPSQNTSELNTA
T3 sequence (P24385 whole entry partner): as the sequence (P24385 whole entry partner) above
Protocol: as §2

[6] = target: ICK (Homo sapiens, UniProt Q9UPZ9); experiment: Kinase inhibition profile; assay type: biochemical
Chain of ICK (Q9UPZ9 whole entry): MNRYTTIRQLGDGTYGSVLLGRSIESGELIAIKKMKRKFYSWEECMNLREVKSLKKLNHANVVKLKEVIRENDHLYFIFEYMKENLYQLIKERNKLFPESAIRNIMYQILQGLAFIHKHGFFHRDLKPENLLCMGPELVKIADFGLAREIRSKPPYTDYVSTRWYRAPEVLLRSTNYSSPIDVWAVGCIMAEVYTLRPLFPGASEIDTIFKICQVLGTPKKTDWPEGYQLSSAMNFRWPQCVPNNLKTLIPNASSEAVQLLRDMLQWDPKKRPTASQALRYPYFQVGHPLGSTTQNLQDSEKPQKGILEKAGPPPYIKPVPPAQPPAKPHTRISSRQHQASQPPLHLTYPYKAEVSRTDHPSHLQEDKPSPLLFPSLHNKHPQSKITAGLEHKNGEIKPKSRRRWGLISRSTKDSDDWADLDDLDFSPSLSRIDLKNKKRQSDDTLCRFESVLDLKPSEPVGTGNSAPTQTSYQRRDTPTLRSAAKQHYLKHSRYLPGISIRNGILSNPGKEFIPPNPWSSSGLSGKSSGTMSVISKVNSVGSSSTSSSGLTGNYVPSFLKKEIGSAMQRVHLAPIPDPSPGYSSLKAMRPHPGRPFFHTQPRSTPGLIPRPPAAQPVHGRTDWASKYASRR

[7] = tested on: HCC1187 cells; experiment: PCR assay of XBP1 transcription; assay type: cell-based; conditions: Voruciclib 1.5 uM, Bortezomib 10 nM, 4 hours
Protocol: 1 ug of mRNA from each condition was used to generate cDNA using the High Capacity cDNA Reverse Transcription Kit (Applied Biosystems) and manufacturer's protocol. 100 ng cDNA was used to conduct a PCR assay to amplify XBP1 u or splice forms (Thermofisher PCR Supermix)—94 deg C. for 2 mins, (94 deg C. for 15 secs, 55 deg C. for 30 secs, 72 deg C. for 1 min)×30 cycles, 72 deg C. for 7 mins, hold at 4 deg C. XBP1 spiced and unspliced variants were detected.

[8] = tested on: RIvA DLBCL model; experiment: Western blot of treated cells; assay type: cell-based; conditions: increasing concentration of voruciclib, single agent
Protocol: Cell lines shown in Table 1, adherent or suspension, were treated in 6-well dishes or T10 flasks respectively, seeded at one million per ml density prior to treatment in total volumes of 3-10 ml. All agents used for in vitro cell treatments were formulated in water/DMSO to achieve required concentrations (as stated in respective figure labels/legends) with DMSO concentrations not exceeding 0.01%. Drug sources are indicated in table under ‘CIVO microinjection studies’. Cells were harvested at experimental time points: 2, 6, or 24 hours post treatment as indicated in respective figures, first by washing cells twice in ice-cold PBS in 15 ml falcon tubes, centrifugation at 1000 rpm for 5 mins followed by lysis of the respective cell pellets as described in section below. Note: Drug resistant NUDHL1 Dox 1000 nM and Toledo Dox 1000 nM cell lines were generated at Presage by culturing parental lines in media with stepwise increments in Doxorubicin concentration over several passages. […]
Protein lysates were prepared by adding ice-cold 1×RIPA Buffer (from 10×, Millipore) with 1×-3× Halt protease and phosphatase inhibitor cocktail (100×, Pierce) to cell pellets, followed by pulse sonication (˜3-5 secs) three times. […] Protein samples were quantified using Bradford assay (Biorad) at 1:10 or higher dilutions using appropriate blank controls with 1×RIPA. […]

[9] = target: MAK (Homo sapiens, UniProt P20794); experiment: Kinase inhibition profile
Chain of MAK (P20794 whole entry): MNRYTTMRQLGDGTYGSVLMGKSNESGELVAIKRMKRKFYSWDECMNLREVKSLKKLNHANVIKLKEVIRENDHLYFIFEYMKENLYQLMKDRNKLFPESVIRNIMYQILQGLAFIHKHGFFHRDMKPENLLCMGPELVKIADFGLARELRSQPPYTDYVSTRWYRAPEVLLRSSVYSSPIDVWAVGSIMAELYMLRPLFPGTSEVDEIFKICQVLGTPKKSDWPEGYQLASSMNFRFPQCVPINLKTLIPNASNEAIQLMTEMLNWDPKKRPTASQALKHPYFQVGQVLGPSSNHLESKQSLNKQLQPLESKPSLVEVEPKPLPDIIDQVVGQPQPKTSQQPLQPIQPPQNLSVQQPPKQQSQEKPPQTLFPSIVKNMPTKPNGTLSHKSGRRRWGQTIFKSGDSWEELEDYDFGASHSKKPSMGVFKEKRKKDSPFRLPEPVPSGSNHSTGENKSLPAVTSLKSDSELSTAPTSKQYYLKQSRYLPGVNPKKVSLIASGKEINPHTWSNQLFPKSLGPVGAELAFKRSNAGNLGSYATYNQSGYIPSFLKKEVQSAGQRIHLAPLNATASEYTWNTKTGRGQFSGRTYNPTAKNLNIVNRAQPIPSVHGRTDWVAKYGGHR

[10] = tested on: HCC1187 triple negative breast cancer (TNBC) xenograft model; experiment: CIVO microinjection, MCL-1 and CC3 staining; assay type: in vivo, mice; conditions: marker of apoptosis
Protocol: as §1
A drug screen was performed to test multiple drugs simultaneously.
FIG. 11 depicts a similar experiment performed on the HCC1187 triple negative breast cancer (TNBC) xenograft model. […] Cells were then stained for CC3 expression (shown in red) as a marker of apoptosis.
FIGS. 20A-20D depicts the HCC1187 triple negative breast cancer (TNBC) xenograft model. Briefly, cells were treated with vehicle, voruciclib alone, ixazomib alone, or voruciclib and ixazomib in combination. Cells were then stained for CC3 expression (shown in red) as a marker of apoptosis.

[11] = tested on: SU-DHL-4 model of DLBCL; experiment: Western blot of treated cells; assay type: cell-based
Protocol: Cell lines shown in Table 1, adherent or suspension, were treated in 6-well dishes or T10 flasks respectively, seeded at one million per ml density prior to treatment in total volumes of 3-10 ml. All agents used for in vitro cell treatments were formulated in water/DMSO to achieve required concentrations (as stated in respective figure labels/legends) with DMSO concentrations not exceeding 0.01%. Drug sources are indicated in table under ‘CIVO microinjection studies’. Cells were harvested at experimental time points: 2, 6, or 24 hours post treatment as indicated in respective figures, first by washing cells twice in ice-cold PBS in 15 ml falcon tubes, centrifugation at 1000 rpm for 5 mins followed by lysis of the respective cell pellets as described in section below. Note: Drug resistant NUDHL1 Dox 1000 nM and Toledo Dox 1000 nM cell lines were generated at Presage by culturing parental lines in media with stepwise increments in Doxorubicin concentration over several passages. These cells were used to generate xenografts when resistance to 1 uM Dox was achieved.
Protein lysates were prepared by adding ice-cold 1×RIPA Buffer (from 10×, Millipore) with 1×-3× Halt protease and phosphatase inhibitor cocktail (100×, Pierce) to cell pellets, followed by pulse sonication (˜3-5 secs) three times. Lysates were cleared by centrifugation at 14K rpm for 15-20 mins and the supernatant (lysate) was collected for further analysis. To prepare lysates from cryopreserved xenograft tumor tissue, tissue was first homogenized using a hand-held tissue homogenizer (Cole Palmer) in above lysis buffer followed by pulse sonication and centrifugation as described above. Above steps were carried out under ice cold conditions. Protein samples were quantified using Bradford assay (Biorad) at 1:10 or higher dilutions using appropriate blank controls with 1×RIPA. 20-25 micrograms of protein from each sample were subject to SDS-PAGE using BOLT 4-12% Bis-Tris gels (Thermofisher) and transferred to either 0.45 or 0.2 micron pore size membranes (as applicable based on protein molecular size), and either nitrocellulose (NC) or pvdf (Thermofisher) using manufacturer's protocol, blocked for one hour in 5% milk at room temperature, probed with primary antibodies (Table 2) at 4 deg C. overnight and corresponding HRP-conjugated secondary antibodies (Jackson Immunoresearch, 1:10,000-1:20,000 dilutions) for 1 hour at room temperature. Three PBS/0.01% Tween-20 washes (5-10 mins each) were carried out after each antibody incubation. ECL chemiluminescent substrate (Pierce or GE) and autoradiographic film (Thermofisher) was used for detection of protein signals.
Cleaved PARP (cPARP) may be used as a biomarker of apoptosis. […] Cells were exposed to drug for 24 h prior to cell lysis and examination by Western Blot using antibodies specific for the cleaved form of PARP, MCL-1, C-MYC, and Beta actin (as a protein loading control) of FIG. 22A and BCL2 as an additional protein loading control in FIG. 22B.
Cleaved PARP (cPARP) may be used as a biomarker of apoptosis. To assess combination efficacy of the two agents of voruciclib and venetoclax together, low doses of each were examined as single agents or as a combination in the three models of DLBCL. Cells were exposed to drug for 24 h prior to cell lysis and examination by Western Blot using antibodies specific for the cleaved form of PARP and Beta actin (as a protein loading control).
FIG. 33 illustrates that voruciclib-induced apoptosis correlates with repression of MCL-1. Three DLBCL models were used: SUDHL4, RIvA, and U2932. Cleaved PARP (cPARP) may be used as a biomarker of apoptosis.

[12] = 0.15 uM voruciclib, 20 nM venetoclax, 24 h
[13] = increasing concentration of voruciclib, single agent

SMILES: CN1CC[C@@H](c2c(O)cc(O)c3c(=O)cc(-c4ccc(C(F)(F)F)cc4Cl)oc23)[C@@H]1CO (relative stereo) [voruciclib, (+)-trans-2-(2-Chloro-4-trifluoromethylphenyl)-5,7-dihydroxy-8-(2-hydroxymethyl-1-methylpyrrolidin-3-yl)-chromen-4-one]
- normalized tumor volume [1]: slightly lower
- CC3 expression [2]: slight effect
- potency [3]: single digit
- potency [4]: single digit
- potency [5]: single digit
- inhibition of ICK [6]: does not show potent inhibition
- bortezomib-induced transcriptional induction of XBP1 [7]: decreased
- MCL-1 [8]: suppresses
- apoptosis (cPARP) [8]: increases as the concentration of voruciclib increases
- inhibition of MAK [9]: does not show potent inhibition
- CC3 expression [10]: little to no increase
- venetoclax-induced MCL-1 ([11]; 0.15 uM voruciclib with 20 nM venetoclax, 24 h): represses
- MCL-1 expression [11, 12]: maintains some efficacy for repressing
- apoptosis (cleaved PARP) [11, 12]: neither compound induces apoptosis as a single agent
- MCL-1 [11, 13]: suppresses
- apoptosis (cPARP) [11, 13]: increases as the concentration of voruciclib increases
- MCL1 ([11]; voruciclib 1.5 uM, 24 h, Western blot): suppresses
